{"source": "ChEMBL document CHEMBL5338765", "about": "“Discovery of Potent and Wild-Type-Sparing Fourth-Generation EGFR Inhibitors for Treatment of Osimertinib-Resistance NSCLC” (J Med Chem, 2023)", "key": {"in vivo [1]": {"experiment": "in vivo", "conditions": "Sprague-Dawley, rat, iv, 1 mg/kg"}, "in vivo [2]": {"experiment": "in vivo", "conditions": "Sprague-Dawley, rat, po, 10 mg/kg"}, "in vivo [3]": {"experiment": "in vivo", "conditions": "Sprague-Dawley, rat, iv, 1 mg/kg", "remark": "listed apart in the source"}, "in vivo [4]": {"experiment": "in vivo", "conditions": "Sprague-Dawley, rat, po, 10 mg/kg", "remark": "listed apart in the source"}, "in vivo [5]": {"experiment": "in vivo", "conditions": "Sprague-Dawley, rat, iv, 1 mg/kg", "remark": "listed apart in the source"}, "in vivo [6]": {"experiment": "in vivo", "conditions": "Sprague-Dawley, rat, po, 10 mg/kg", "remark": "listed apart in the source"}, "in vivo [7]": {"experiment": "in vivo", "conditions": "Sprague-Dawley, rat, iv, 1 mg/kg", "remark": "listed apart in the source"}, "in vivo [8]": {"experiment": "in vivo", "conditions": "Sprague-Dawley, rat, po, 10 mg/kg", "remark": "listed apart in the source"}, "in vivo [9]": {"experiment": "in vivo", "conditions": "Sprague-Dawley, rat, iv, 1 mg/kg", "remark": "listed apart in the source"}, "in vivo [10]": {"experiment": "in vivo", "conditions": "Sprague-Dawley, rat, po, 10 mg/kg", "remark": "listed apart in the source"}, "in vivo [11]": {"experiment": "in vivo", "conditions": "Sprague-Dawley, rat, iv, 1 mg/kg", "remark": "listed apart in the source"}, "in vivo [12]": {"experiment": "in vivo", "conditions": "Sprague-Dawley, rat, po, 10 mg/kg", "remark": "listed apart in the source"}, "in vivo [13]": {"experiment": "in vivo", "conditions": "Sprague-Dawley, rat, po, 10 mg/kg", "remark": "listed apart in the source"}}, "data": [{"smiles": "CCS(=O)(=O)n1cc(-c2nc(Nc3ccc4c(ccn4CCN(C)C)c3)ncc2C(F)(F)F)c2ccccc21", "values": [{"measurement": "Cmax at 24 h", "setting": "in vivo [1]", "value": 130, "unit": "ng/mL"}, {"measurement": "Cmax at 24 h", "setting": "in vivo [2]", "value": 54.7, "unit": "ng/mL"}, {"measurement": "AUC(0-inf) at 24 h", "setting": "in vivo [3]", "value": 242, "unit": "ng·h/mL"}, {"measurement": "AUC(0-inf) at 24 h", "setting": "in vivo [4]", "value": 678, "unit": "ng·h/mL"}, {"measurement": "MRT inf at 24 h", "setting": "in vivo [5]", "value": 4.33, "unit": "h"}, {"measurement": "MRT inf at 24 h", "setting": "in vivo [6]", "value": 9.62, "unit": "h"}, {"measurement": "Tmax at 24 h", "setting": "in vivo [7]", "value": 4.8, "unit": "min"}, {"measurement": "Tmax at 24 h", "setting": "in vivo [8]", "value": 8, "unit": "h"}, {"measurement": "half-life at 24 h", "setting": "in vivo [9]", "value": 3.67, "unit": "h"}, {"measurement": "half-life at 24 h", "setting": "in vivo [10]", "value": 5.37, "unit": "h"}, {"measurement": "clearance at 24 h", "setting": "in vivo [11]", "value": 70.2, "unit": "mL/min/kg"}, {"measurement": "CL/F at 24 h", "setting": "in vivo [12]", "value": 278, "unit": "mL/min/kg"}, {"measurement": "bioavailability at 24 h", "setting": "in vivo [13]", "value": 28.1, "unit": "%"}]}]}
